Measurements from ChEMBL document CHEMBL1777735, “Lipophilicity of acidic compounds: impact of ion pair partitioning on drug design” (Bioorg Med Chem Lett, 2011).

Tests used:
[1] = Plasma protein binding in human; assay type: ADME, cell-free; details: read-out: PPB (converted)
[2] = Lipophilicity, log P of the compound; assay type: physicochemical; details: octanol/water
[3] = 1-Octanol-water distribution coefficient, log D of the compound at pH 7.4 by shake-flask method; assay type: physicochemical
[4] = 1-Octanol-sodium citrate buffer distribution coefficient, log D of the compound at pH 5.5 by shake-flask method; assay type: physicochemical
[5] = 1-octanol/sodium citrate buffer, read-out: logD

| SMILES | fraction unbound [1] | logP [2] | logD [3] | logD ([4]; octanol/water) | logD [4, 5] | logP ([2]; read-out: logP) |
| --- | --- | --- | --- | --- | --- | --- |
| CCOC(=O)[C@H](CCc1ccccc1)N[C@@H](C)C(=O)N1[C@H](C(=O)O)C[C@@H]2CCC[C@@H]21 | 0.105 | – | – | – | – | – |
| CCOC(=O)[C@H](CCc1ccccc1)N[C@@H](C)C(=O)N1CCC[C@H]1C(=O)O | 0.5 | – | -1.8 | – | -0.5 | – |
| CC(=O)c1ccc(S(=O)(=O)NC(=O)NC2CCCCC2)cc1 [ACETOHEXAMIDE] | 0.25 | – | -0.3 | – | 1.3 | 2.4 |
| O=C(O)CCCc1ccc(N(CCCl)CCCl)cc1 [CHLORAMBUCIL] | 0.01 | – | 1.4 | – | 3.2 | – |
| CCc1cccc2c3c([nH]c12)C(CC)(CC(=O)O)OCC3 (stereo unspecified) [ETODOLAC] | 0.009 | – | – | – | – | – |
| COc1ccc(Cl)cc1C(=O)NCCc1ccc(S(=O)(=O)NC(=O)NC2CCCCC2)cc1 [GLYBURIDE] | 0.002 | – | 2.2 | – | 3.5 | – |
| COc1ccc2c(c1)c(CC(=O)O)c(C)n2C(=O)c1ccc(Cl)cc1 [INDOMETHACIN] | – | – | – | – | 2.7 | 3.8 |
| O=C(c1ccccc1)c1ccc2n1CCC2C(=O)O (stereo unspecified) [KETOROLAC] | 0.008 | – | -1 | – | 0.6 | 2.7 |
| CN1C(C(=O)Nc2ccccn2)=C(O)c2ccccc2S1(=O)=O [PIROXICAM] | 0.007 | – | -0.3 | – | 1.1 | – |
| CCOc1cc(CC(=O)N[C@@H](CC(C)C)c2ccccc2N2CCCCC2)ccc1C(=O)O [REPAGLINIDE] | 0.009 | – | 2.2 | – | 3.2 | – |
| Cc1nnc(NS(=O)(=O)c2ccc(N)cc2)s1 [SULFAMETHIZOLE] | 0.065 | – | -1.6 | – | 0 | – |
| Cc1ccc(S(=O)(=O)NC(=O)NN2CCCCCC2)cc1 [TOLAZAMIDE] | 0.06 | – | 0 | – | 1.2 | – |
| Cc1ccc(C(=O)c2ccc(CC(=O)O)n2C)cc1 [TOLMETIN] | 0.003 | – | -1 | – | 0.8 | 2.7 |

Results, then the compound that gave them:

| fraction unbound [1] | logP [2] | logD [3] | logD ([4]; octanol/water) | logD [4, 5] | logP ([2]; read-out: logP) | SMILES |
| --- | --- | --- | --- | --- | --- | --- |
| 0.004 | 2.6 | 2.8 | 3.7 | – | – | CN(C)S(=O)(=O)NC(=O)CCCc1c(-c2ccc(F)cc2)[nH]c2ccc(C#N)cc12 |
| 0.041 | – | – | – | – | – | CCOC(=O)[C@H](CCc1ccccc1)N[C@H]1CCc2ccccc2N(CC(=O)O)C1=O [BENAZEPRIL] |
| 0.016 | – | -0.6 | – | 1.1 | – | CCCCNc1cc(C(=O)O)cc(S(N)(=O)=O)c1Oc1ccccc1 [BUMETANIDE] |
| – | – | 2.2 | – | 3.5 | – | Cc1cc(SCc2sc(-c3ccc(C(F)(F)F)cc3)nc2C)ccc1OCC(=O)O [GW501516] |
| 0.02 | – | 0.9 | – | 2.4 | – | CCCCC1=NC2(CCCC2)C(=O)N1Cc1ccc(-c2ccccc2-c2nnn[nH]2)cc1 [IRBESARTAN] |
| 0.02 | – | 0.6 | – | 2.2 | – | CCCCc1nc(Cl)c(CO)n1Cc1ccc(-c2ccccc2-c2nn[nH]n2)cc1 [LOSARTAN] |
| < 0.001 | – | 1 | – | 2.5 | 3.1 | O=C(O)CCc1nc(-c2ccccc2)c(-c2ccccc2)o1 [OXAPROZIN] |
| 0.025 | – | 0.5 | – | 2.3 | 3 | O=C(O)CCn1c2c(c3ccccc31)C[C@H](NS(=O)(=O)c1ccc(F)cc1)CC2 [RAMATROBAN] |
